In general, IC50 refers to the midpoint of a concentration-inhibition curve.

This test addresses T1, CCR1 (Homo sapiens, UniProt P32246).
T1 construct: host or cells: non-adherent cells
T1 sequence (P32246 1-355): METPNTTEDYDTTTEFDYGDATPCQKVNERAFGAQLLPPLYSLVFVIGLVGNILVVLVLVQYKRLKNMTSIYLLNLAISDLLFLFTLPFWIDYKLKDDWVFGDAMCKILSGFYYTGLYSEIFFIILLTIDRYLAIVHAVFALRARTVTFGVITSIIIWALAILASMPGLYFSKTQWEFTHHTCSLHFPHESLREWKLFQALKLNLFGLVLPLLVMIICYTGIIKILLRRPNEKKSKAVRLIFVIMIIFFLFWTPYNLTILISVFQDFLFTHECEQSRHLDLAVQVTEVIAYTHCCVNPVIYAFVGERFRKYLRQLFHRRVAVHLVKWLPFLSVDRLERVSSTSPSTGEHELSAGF
Briefly: functional cellular assay measuring calcium flux in response to MIP1α in CCR1-transfected cells (Method A or Method B). It counts as cell-based. As to conditions: cells stably expressing recombinant CCR1 and G-alpha-16; MIP-1alpha added at EC80; method (A: FLIPR TETRA, B: FDSS6000) not stated per compound. How it is done: Compounds are assessed for the ability to block the interaction of CCR1 and its ligands in a functional cellular assay measuring calcium flux in response to MIP1α in CCR1-transfected cells.
Method A: Non-adherent cells purchased from Chemicon Corporation (HTS005C), stably expressing recombinant CCR1 and G-alpha-16 are grown in RPMI 1640 medium (Mediatech 10-080-CM) supplemented with 10% heat-inactivated FBS, 0.4 mg/mL Geneticin and penicillin/streptomycin. On the day of the assay, the cells are transferred to a beaker and dye-loaded in bulk using a Fluo-4 NW Calcium Assay Kit with probenecid (Invitrogen F36205) at 0.8E6 cells/mL for 1 hour at room temperature. After 1 hour, they are seeded in a 384-well tissue culture-treated plate at a density of 20,000 cells/well. Appropriately diluted test compound is added to the well to achieve a top concentration of 3,000 nM (diluted 3-fold with 10 doses total). The final concentration of DMSO is 1%. The buffer is HBSS (Invitrogen 14025) with 20 mM HEPES at pH 7.4. The cells are allowed to incubate 1 hour in the dark at room temperature. The plates are transferred to the FLIPR TETRA where MIP-1alpha in 1% BSA is added at the EC80 final concentration. Wells +/−MIP-1alpha containing diluted DMSO instead of compound serve as the controls. Intracellular calcium flux is recorded on the FLIPR TETRA, using excitation at 470/495 nm and emission at 515/575 nm. Data are analyzed using Activity Base software.
Method B: Non-adherent cells purchased from Chemicon Corporation (HTS005C), stably expressing recombinant CCR1 and G-alpha-16 are grown in RPMI 1640 medium (Mediatech 10-080-CM) supplemented with 10% FBS, 0.4 mg/mL Geneticin and penicillin/streptomycin. On the day of the assay, the cells are loaded with Calcium 4 dye (Molecular Devices R7448) with Probenecid (Invitrogen P346400) at 8E5 cells/mL for 1 hour at room temperature. After 1 hour, they are seeded in a 384-well tissue culture-treated plate at a density of 20,000 cells/well. Appropriately diluted test compound is added to the well to achieve a top concentration of 3,000 nM (diluted 4-fold with 10 doses total). The final concentration of DMSO is 1%. The buffer is HBSS (Invitrogen 14025) with 20 mM HEPES at pH 7.4. The cells incubate 30 minutes at 37 C and then 30 minutes at room temperature. The plates are transferred to the HAMAMATSU FDSS6000 where MIP-1alpha in 1% BSA is added at the EC80 final concentration. All plates must be read within 4 hours of the start of dye-loading. Wells +/−MIP-1alpha containing diluted DMSO instead of compound serve as the controls. Data are analyzed using Activity Base software.
In general terms: Calcium flux is commonly read through the fluorescence of an indicator in the cells.
Turning to `CCC[C@H](NC(=O)c1cnn(-c2ccc(Cl)cc2)c1C)c1ccc(F)c(C(F)(F)F)c1` [1-(4-Chloro-phenyl)-5-methyl-1H-pyrazole-4-carboxylic acid [(S)-1-(4-fluoro-3-trifluoromethyl-phenyl)-butyl]-amide], the IC50 stood at 10 nM.

As for `CC[C@H](NC(=O)c1cnn(-c2ccc(Cl)cc2)c1C)c1ccc(F)c(C(F)(F)F)c1` [1-(4-Chloro-phenyl)-5-methyl-1H-pyrazole-4-carboxylic acid [(S)-1-(4-fluoro-3-trifluoromethyl-phenyl)-propyl]-amide], the IC50 was found to be 13 nM. In the case of `CC[C@H](NC(=O)c1cnn(-c2ccc(Cl)cc2)c1C)c1cncc(Br)c1` [1-(4-Chloro-phenyl)-5-methyl-1H-pyrazole-4-carboxylic acid [(S)-1-(5-bromo-pyridin-3-yl)-propyl]-amide] it was 20 nM; in that of `CCCC(NC(=O)c1cnn(-c2ccc(Cl)cc2)c1C)c1cncc(S(=O)(=O)C(C)C)c1` (stereo not shown) [1-(4-Chloro-phenyl)-5-methyl-1H-pyrazole-4-carboxylic acid {1-[5-(propane-2-sulfonyl)-pyridin-3-yl]-butyl}-amide], 72 nM. With `CCCC(NC(=O)c1cnn(-c2ccc(Cl)cc2)c1C)c1ccc(S(=O)(=O)NCCO)nc1` (stereo not shown) [1-(4-Chloro-phenyl)-5-methyl-1H-pyrazole-4-carboxylic acid {1-[6-(2-hydroxy-ethylsulfamoyl)-pyridin-3-yl]-butyl}-amide] the figure was 97 nM; with `CCCC(NC(=O)c1cnn(-c2ccc(Cl)cc2)c1C)c1ccc(S(=O)(=O)CCCO)nc1` (stereo not shown) [1-(4-Chloro-phenyl)-5-methyl-1H-pyrazole-4-carboxylic acid {1-[6-(3-hydroxy-propane-1-sulfonyl)-pyridin-3-yl]-butyl}-amide], 86 nM. As to `CCCC(NC(=O)c1cnn(-c2ccc(Cl)cc2)c1C)c1ccc(S(=O)(=O)NC2CCOCC2)nc1` (stereo not shown) [1-(4-Chloro-phenyl)-5-methyl-1H-pyrazole-4-carboxylic acid {1-[6-(tetrahydro-pyran-4-ylsulfamoyl)-pyridin-3-yl]-butyl}-amide], the IC50 is 41 nM.

As to `CCC[C@H](NC(=O)c1cnn(-c2ccc(Cl)cc2)c1CNC)c1cccc(C(F)(F)F)c1` [1-(4-Chloro-phenyl)-5-methylaminomethyl-1H-pyrazole-4-carboxylic acid [(S)-1-(3-trifluoromethyl-phenyl)-butyl]-amide], the IC50 was found to be 98 nM.

As for `CCCC(NC(=O)c1cnn(-c2ccc(Cl)cc2)c1C)c1ccnc(S(=O)(=O)CCC(=O)OC)c1` (stereo not shown) [3-[4-(1-{[1-(4-Chloro-phenyl)-5-methyl-1H-pyrazole-4-carbonyl]-amino}-butyl)-pyridine-2-sulfonyl]-propionic acid methyl ester], the IC50 was 80 nM. Regarding `CCC[C@H](NC(=O)c1cnn(-c2ccc(Cl)cc2)c1CN)c1cccc(C(F)(F)F)c1` [5-Aminomethyl-1-(4-chloro-phenyl)-1H-pyrazole-4-carboxylic acid [(S)-1-(3-trifluoromethyl-phenyl)-butyl]-amide], the half-inhibitory concentration (IC50) worked out at 12 nM.

Source of the values: patent US8293917B2, “Pyrazole compounds as CCR1 antagonists” (Boehringer Ingelheim International GmbH, priority 2008, dated 2012).
